Reference: patent US20050239808A1, “Active substances for the treatment, diagnosis and prophylaxis of diseases in which abnormal protein structures occur” (priority 2002, published 2005)

What was measured:
Aβ(1-42) [1] = target: T1, Aβ(1-42) (Homo sapiens, UniProt P05067); experiment: Aβ(1-42) aggregation assay by Fluorescence Correlation Spectroscopy (FCS); assay type: biochemical; details: 5.5-11 μM Aβ(1-42) + 22 nM oregon green-labelled Aβ(1-42), 10 nM of aminopyrazole (referring to the initial solution), 5-10% DMSO, 10 mM sodium phosphate buffer pH 7.2, room temperature, 12-72 hours
T1 construct: Aβ(1-42) was used as the model molecule in the aggregation experiments

Aβ(1-42) [2] = target: T1, Aβ(1-42); assay type: biochemical; details: FIG. 10; 32.8 μM and 16.4 μM Aβ(1-42), 20 mM AmpOx, 6 h at room temperature, 6% DMSO, 100,000 g centrifugation
Procedure: Aβ(1-42) solutions were incubated under various conditions and their aggregation was analysed by a 100,000 g spin in an ultracentrifuge.
The Aβ(1-42) dissolved in 100% DMSO was diluted to a concentration of 11 μM in 10 mM of sodium phosphate buffer pH 7.2. All samples contained 22 nM of oregon green labelled Aβ(1-42) and were incubated for 48 hours at room temperature in 10% DMSO.
Aβ(1-42) was dissolved in 100% DMSO and diluted to a concentration of 32.8 μM and 16.4 μM in 10 mM of sodium phosphate buffer pH 7.2. The protein was incubated at room temperature for 6 h in 6% DMSO with and without 20 mM AmpOx.

[3] = Solubility of aminopyrazoles in DMSO and after dilution in sodium phosphate buffer
Procedure: These aminopyrazoles were dissolved in 100% DMSO. […] In order to eliminate particles, these dissolved solutions of aminopyrazoles were resolved in 10 mM of sodium phosphate buffer pH 7.2 to a final DMSO concentration of 5%. They were then filtered with Microcon YM 10 tubes.

T1 sequence (P05067 672-713 limits assumed): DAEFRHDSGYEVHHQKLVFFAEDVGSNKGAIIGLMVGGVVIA

Row | Compound | inhibition of Aβ(1-42) aggregation (Aβ(1-42) [1]) | distribution of Aβ(1-42) between supernatant (S) and pellet (P), compared with the Trimer result (Aβ(1-42) [2]) | solubility in 100% DMSO [3]
1 | Cc1cc(NC(=O)C(=O)Nc2cc(C)[nH]n2)n[nH]1 [AmpOx, N,N′-Bis-(−5-methyl-1H-pyrazole-3-yl)-oxalic acid diamide] | able to disturb or inhibit the aggregation of Aβ(1-42) | almost identical results | not completely soluble
2 | COC(=O)c1cc(NC(=O)c2cc(NC(=O)c3cc([N+](=O)[O-])[nH]n3)[nH]n2)[nH]n1 [Trimer] | able to disturb or inhibit the aggregation of Aβ(1-42) |  | 
